Entries after “also recorded” stand apart in the source; their conditions may differ. Counter-ions that a name gives are not always drawn.
Columns and labels:
HEK293T lysates = assay: Chemoproteomic profiling of HEK293T lysates (protein-level enrichment); format: biochemical, human; details: for Western blot (streptavidin-HRP) proteome labeling profile of elutions: 0-100 μM probe, with/without light, before digestion; for number of proteins identified (from ≥2 unique peptides) showing ≥2-fold enrichment versus DMSO: about 100 μM probe, 5 mg/mL lysate, 60 min incubation, 20 min irradiation: 302 nm (1a), 320 nm (1b), 440 nm (2b)
Description: In lysate tryptophan probe treatment for protein-level characterization: HEK293T cell pellets were suspended in native lysis buffer (50 mM HEPES pH 7.5, 150 mM sodium chloride (NaCl), 1.5 mM MgCl2, 1 mM DTT, 0.8% NP-40, 5% glycerol, and 1× protease inhibitors (Thermo)) at 2× the pellet volume. The samples were sonicated on ice for 30 seconds at 20% amplitude with a 2 second pulse ON and 3 second pulse OFF. Cell debris was removed by centrifugation at 20,000×g for 20 minutes at 4° C. Protein concentration was determined by bicinchoninic acid (BCA) (Pierce) and diluted down to 5 mg/mL with ChemProt buffer (50 mM HEPES pH 7.5, 150 mM NaCl, 1.5 mM MgCl2, 1 mM DTT, 0.4% NP-40, and 1x protease inhibitors (Thermo). 5 mg cell lysates were treated with 100× stocks of the tryptophan probes (pyridinium salts 1a, 1b, and 2b) to generate final concentrations (0, 1, 10, and 100 μM) in 1% DMSO. Lysates were incubated for 1 hour at 4° C. followed by photo-activation at respective wavelengths for 20 minutes at 4° C. Excess probe was removed using Sephadex G-25 PD-10 desalting columns (GE Healthcare) pre-equilibrated with 50 mM HEPES pH 7.5, 150 mM NaCl, 1.5 mM MgCl2, and 0.4% NP-40. The samples were then treated with 100 μL Neutravidin resin as a 50% slurry (Peirce). The samples were incubated overnight on a rotating apparatus at R.T. The following day, the beads were transferred to a MobiCol column (Boca Scientific), washed 3× with phosphate buffered saline (PBS) containing 0.2% SDS, washed 3× with PBS, and the enriched proteins were eluted with 2× NuPAGE lithium dodecyl sulfate (LDS) containing 10 mM DTT (Pierce) and heated for 30 minutes at 55° C. The eluent was collected and subsequently treated with 20 mM iodoacetamide (Pierce) for 30 minutes at R.T. protected from light. Samples were passed through detergent removal columns (Pierce) that were pre-equilibrated with 50 mM HEPES pH 8.0. The samples were treated with 2.5 μg Trypsin/LysC (Promega) at 37° C. for 16 hours. The following day, the sample was collected and prepped for isobaric labeling with TMT reagents (Thermo) as specified by the manufacturer.
Quantitative proteomics by two-dimensional nano liquid chromatography-tandem mass spectrometry (nLC-MS/MS): For protein-level characterization, the TMT-labeled sample were reconstituted in 0.1% formic acid (FA)/2% acetonitrile for offline high-pH reversed phase separation (RP10) using a Dionex UltiMate 3000 high-performance liquid chromatography (HPLC) system with fraction collection using Chromeleon v.6.8 (Thermo) software. Separation was achieved on a Waters Xbridge C18 3.5 μm 2.1×150 mm HPLC column (Waters) using a flow rate of 250 μL min-1 and the following ternary gradient and conditions: mobile phase A=water (HPLC grade), mobile phase B=acetonitrile (HPLC grade), and mobile phase C=200 mM ammonium acetate, pH 10. Mobile phase C is held at 10% throughout gradient. Starting conditions are 89% mobile phase A and 1% mobile phase B, ramping mobile phase B to 80% over 65 min. Fractions were collected in 96-well plates at 100 sec per well. Fractions were reduced down to 12 fractions, dried, and reconstituted in 0.1% FA/2% acetonitrile for nLC-MS/MS. All data were acquired using a Orbitrap Fusion Lumos coupled to an Easy-nLC 1200 nanoflow liquid chromatograph operating at 300 nL min-1. Peptides were cleaned up using a 1 cm online custom trap then eluted on a custom 20 cm laser pulled 75 μm column with C18 resin. Peptides were quantified using the synchronous precursor selection (SPS-MS3) or HCD method for TMT quantitation with 120k MS1 resolving power, 50 ms max injection time and 100% AGC. MS2 spectra were selected using the top ten most abundant features with a charge state between 2-6 using CID (collision induced dissociation) in the ion trap. The AGC was set to 100% with an isolation width of 0.7. MS3 was performed on the top 10 most abundant MS2 features between 400-1600 amu with a collision energy of 55%, AGC of 250%, and 50k resolution. […]

lysozyme = target: T1, lysozyme (Gallus gallus, UniProt P00698); assay: Photochemical labeling of lysozyme with pyridinium salts (General Procedure B, LC/MS); format: biochemical, chicken; details: lysozyme labeling
T1 construct: Lysozyme (from chicken egg white, >40,000 units/mg of protein); purchased Sigma Aldrich; host or cells: chicken egg white
T1 sequence (P00698 19-147): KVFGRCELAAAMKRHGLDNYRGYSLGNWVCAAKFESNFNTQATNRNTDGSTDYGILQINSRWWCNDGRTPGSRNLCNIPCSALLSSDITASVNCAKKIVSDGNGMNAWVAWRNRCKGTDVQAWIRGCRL
Description: General Procedure B: Photochemical Irradiation of Peptides and Proteins: To a 2 mL Pyrex LC/MS vial (Thermo model #03-391-39) were sequentially added solutions containing the desired biomolecule, glutathione (GSH), pyridinium salt, and ammonium acetate (NH4OAc). The resulting solution was diluted to a final volume of 500 μL and then sparged using nitrogen for a minimum of 30 minutes prior to irradiation. The actively sparging solution was then placed in an EvoluChem™ PhotoRedOx Box photoreactor that was equipped with a Kessil, PR160 427 nm LED Lamp and was then irradiated (100% lamp intensity) for the designated time at room temperature while maintaining active sparging. The resultant reaction mixture was then analyzed directly by LC/MS. Analysis of labeling outcomes using LC/MS was performed either by extracted ion chromatogram intensities (method A) or by integrating the area under the peaks associated with peptide content (method B). These values were totaled, and estimated percentages were assigned according to relative intensities of peaks or ion counts.
Labeling of Lysozyme with Pyridinium Salt 2a (Lysozyme-2a Conjugate). Labeling of lysozyme (14.3 kDa) with the pyridinium salt 2a was performed by following general procedure B using the following solutions: lysozyme (27 μL, 182 μM, 10 μM final concentration), pyridinium salt 2a (200 μL, 500 μM, 200 μM final concentration), NH4OAc (100 μL, 100 mM, pH=6.9, 20 mM final concentration), glutathione (15 μL, 10 mM, 300 μM final concentration), and water (158 μL) with a 100% intensity irradiation time of 60 minutes. The reaction mixture was analyzed directly by LC/MS using method A and was estimated to have proceeded in >95% conversion and a 10.9:1 mono:di labeled ratio and 10% glutathionylation of all unlabeled and labeled protein content was observed.
Labeling of Lysozyme with Pyridinium Salt 2b (Lysozyme-2b Conjugate). Labeling of lysozyme (14.3 kDa) with the pyridinium salt 2b was performed by following general procedure Busing the following solutions: lysozyme (19 μL, 262 μM, […]), 2b (181 μL, 554 μM, 200 μM final concentration), NH4OAc (50 μL, 200 mM, pH=6.9, 20 mM final concentration), glutathione (50 μL, 3 mM, 300 μM final concentration), and water (200 μL) with a 100% intensity irradiation time of 10 minutes. The reaction mixture was analyzed directly by LC/MS using method A and was estimated to have proceeded with 83% conversion. […]
Labeling of Lysozyme with Pyridinium Salt 2c (Lysozyme-2c Conjugate). […] The reaction mixture was analyzed directly by LC/MS using method A and was estimated to have proceeded with 85% conversion and a 3.7:1 mono:di labeled ratio and 10% glutathionylation of all protein content was observed. […]

labeling rate compared to pyridinium salt 2a (lysozyme) | SMILES | Western blot (streptavidin-HRP) proteome labeling profile of elutions (HEK293T lysates) | number of proteins identified (from ≥2 unique peptides) showing ≥2-fold enrichment versus DMSO (HEK293T lysates)
 | Cc1cc(C)[n+](N(C)C(=O)OCCCCC[C@@H]2SC[C@@H]3NC(=O)N[C@@H]32)c(C)c1 [pyridinium salt 1a, 2,4,6-trimethyl-1-(methyl(((5-((3aS,4S,6aR)-2-oxohexahydro-1H-thieno[3,4-d]imidazol-4-yl)pentyl)oxy)carbonyl)amino)pyridin-1-ium tetrafluoroborate] | concentration and optically dependent proteome labeling profiles; also recorded: loss of signal | 185
 | Cc1cc(-c2ccccc2)cc(C)[n+]1N(C)C(=O)OCCCCC[C@@H]1SC[C@@H]2NC(=O)N[C@@H]21 [pyridinium salt 1b, 2,6-dimethyl-1-(methyl(((5-((3aS,4S,6aR)-2-oxohexahydro-1H-thieno[3,4-d]imidazole-4-yl)pentyl)oxy)carbonyl)amino)-4-phenylpyridin-1-ium tetrafluoroborate] | concentration and optically dependent proteome labeling profiles; also recorded: dose-response profiles | 365
enhanced rate | COc1ccc2cc(-c3cc(C)[n+](N(C)C(=O)OCCCCCC[C@H]4NC(=O)N[C@H]4C)c(C)c3)ccc2c1 [pyridinium salt 2c, 4-(6-methoxynaphthalen-2-yl)-2,6-dimethyl-1-(methyl(((6-((4R,5S)-5-methyl-2-oxoimidazolidin-4-yl)hexyl)oxy)carbonyl)amino)pyridin-1-ium trifluoroacetate] |  | 
